Type in all cases: cell-based
Experiment [1] addresses T1, EGFR WT (Ba/F3 cells) (Homo sapiens, UniProt P00533).
T1 construct: expressed in transfected cells; host or cells: Ba/F3 (murine pro-B cells), retroviral transduction, puromycin selection, maintained with EGF
In words: Inhibitor activity on EGFR-dependent cell growth (CellTiter-Glo, 72 h), Ba/F3 EGFR WT. The settings on record: read-out: BaF3 WT IC50. In short, it runs like this:
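This growth assay used Ba/F3 cells that depend on wild-type EGFR and are kept in EGF without IL3. Compounds were made up as 10 mM DMSO stocks and diluted 3-fold over 10 points. 120 nL went onto 600 cells/well. After 72 hours, 40 μL CellTiter-Glo was added and luminescence read on EnVision after 30 min.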
For orientation: ATP-based viability assays read luminescence as a measure of living cells.

Experiment [2] concerns the target T2, EGFR exon 19del (Ba/F3 cells) (Homo sapiens, UniProt P00533). In words: Inhibitor activity on EGFR phosphorylation (pEGFR AlphaLISA, 2 h), Ba/F3 EGFR exon 19del. The note with it: read-out: Del19 IC50 (pEGFR). The source says:
(§1) Example B. Inhibitor Activity on EGFR phosphorylation (pEGFR)
(§2) EGFR mutant Ba/F3 cells were generated by transduction with retrovirus containing vectors expressing EGFR L858R, EGFR exon 19del, EGFR L858R/C797S, EGFR exon 20 NPG Ins D770_N771, EGFR exon 20 ASV Ins V769_D770, or EGFR exon 20 SVD Ins D770_N771 genes along with a puromycin selection marker. Transduced cells are selected with puromycin for 7 days and are then be transferred into culture media without Interleukin 3 (IL3). Surviving cells are confirmed to express EGFR by Western blot and maintained as a pool. CUTO14 cells were obtained from Dr. Robert C. Doebele at the University of Colorado. The IC50 date are included in Table 6 and Table 7.
(§3) 1.1 Cells are harvested from flask into cell culture medium and the cell number counted.
(§4) 1.2 Cells are diluted with culture medium to the desired density and 40 μL of cell suspension is added into each well of 384-well cell culture plate and the seeding density is 50K cells/well (Ba/F3) or 12.5K cells/well (CUTO14).
(§5) 2 Compound Preparation and Treatment
(§6) 2.1 Test compounds are dissolved to 10 mM in a DMSO stock solution. 45 μL of stock solution is transferred to a 384 polypropylene plate (pp-plate). Perform 3-fold, 10-point dilution via transferring 15 μL compound into 30 μL DMSO using a TECAN (EVO200) liquid handler.
(§7) 2.2 Spin plates at room temperature at 1,000 RPM for 1 minute.
(§8) 2.3 Transfer 5 nL of diluted compound from compound source plate into the cell plate.
(§9) 2.4 After compound treatment for 2 hours, perform pEGFR detection by AlphaLISA for compound treatment plates as described in “Detection” section.
(§10) 3 Detection by pEGFR AlphaLISA (Perkin-Elmer)
(§11) 3.1 Plates are removed from incubators and equilibrated at room temperature for 10 minutes, and media was removed
(§12) 3.2 10 μL of lysis buffer is added and plates shaken at 600 rpm for 1 hr.
(§13) 3.3 Prepare acceptor mix just before use and dispense 5 μL of acceptor mix to all the wells. Shake 350 rpm for Ihr in the dark
(§14) 3.4 Prepare donor mix under low light conditions prior to use. Dispense 5 μL of donor mix to all the wells. Mix well on the shaker, seal and wrap in aluminum foil and incubate 1.5 hrs at room temperature in the dark
(§15) 3.5 Transfer 18.5 μL mixture to OptiPlate 384, and read using an Envision. The IC50 date were included in Table 6 and Table 7.
(In general: Alpha assays give light when donor and acceptor beads are brought close together.)

For experiment [3], the target named is T3, EGFR L858R/C797S (Ba/F3 cells) (Homo sapiens, UniProt P00533, C797S/L858R).
T3 construct: expressed in transfected cells; host or cells: Ba/F3 (murine pro-B cells), retroviral transduction, puromycin selection, IL3-independent pool
In words: Inhibitor activity on EGFR-dependent cell growth (CellTiter-Glo, 72 h), Ba/F3 EGFR L858R/C797S. The settings on record: read-out: BaF3 L858R/C797S IC50.
Source text: Example A. Inhibitor Activity on EGFR-Dependent Cell Growth
Cell lines are generated by transducing Ba/F3 cells with retroviruses containing vectors with EGFR WT, EGFR L858R, EGFR exon 19del, EGFR L858R/C797S, EGFR exon 20 NPG Ins D770_N771, EGFR exon 20 ASV Ins V769_D770, EGFR exon 20 SVD Ins D770_N771, or EGFR exon 20 FQEA Ins A763_V764 genes and a puromycin selection marker. Transduced cells are selected with puromycin for 7 days and are then be transferred into culture media without Interleukin 3 (IL3). EGFR WT cells are maintained with supplemental EGF. Surviving cells are confirmed to express EGFR by Western blot and maintained as a pool. The IC50 date were included in Table 6 and Table 7.
as §3
1.2 Cells are diluted with culture medium to the desired density and 40 μL of cell suspension is added into each well of 384-well cell culture plate and the seeding density is 800 (FQEA, exon 19del), 600 (WT, NPG, L858R/C797S), or 400 (ASV, SVD, L858R) cells/well.
as §5, §6, §7
2.3 Transfer 120 nL of diluted compound from compound source plate into the cell plate.
2.4 After compound treatment for 72 hours, perform CTG detection for compound treatment plates as described in “Detection” section.
3.1 Plates are removed from incubators and equilibrated at room temperature for 15 minutes.
3.2 Thaw the CellTiter Glo reagents and allow to equilibrate to room temperature before the experiment.
3.3 Add 40 μL of CellTiter-Glo reagent into each well (at 1:1 to culture medium). Then place the plates at room temperature for 30 min followed by reading on EnVision.
4.1 Inhibition activity is calculated following the formula below:
% Inhibition=100×(LumHC−LumSample)/(LumHC−LumLC) • where HC is obtained from cells treated with 0.1% DMSO only; and LC is obtained from culture medium only.
4.2 2. Calculate the IC50 by fitting the Curve using Xlfit (v5.3.1.3), equation 201.
Y=Bottom+(Top−Bottom)/(1+10^((Log IC50−X)*HillSlope))

Experiment [4] addresses T2, EGFR exon 19del (Ba/F3 cells). Kind of experiment: Inhibitor activity on EGFR-dependent cell growth (CellTiter-Glo, 72 h), Ba/F3 EGFR exon 19del. The note with it: Ba/F3 EGFR exon 19del cell growth, read-out: BaF3 Del19 IC50. The method, boiled down: (§16)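 For each mutant line, growth depends on EGFR signalling in the absence of IL3. Density per well: 400 for L858R, 600 for the C797S double mutant, 800 for exon 19del and FQEA. Ten threefold dilutions were applied for 72 h. %Inhibition = 100×(DMSO − sample)/(DMSO − medium blank).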

Experiment [5] addresses T4, EGFR L858R (Ba/F3 cells) (Homo sapiens, UniProt P00533, L858R).
T4 construct: expressed in transfected cells; host or cells: Ba/F3 (murine pro-B cells), retroviral transduction, puromycin selection, IL3-independent pool
In words: Inhibitor activity on EGFR-dependent cell growth (CellTiter-Glo, 72 h), Ba/F3 EGFR L858R. The note with it: read-out: BaF3 L858R IC50. In short, it runs like this: as §16

Experiment [6] deals with T4, EGFR L858R (Ba/F3 cells). In words: Inhibitor activity on EGFR phosphorylation (pEGFR AlphaLISA, 2 h), Ba/F3 EGFR L858R.
Source text: as §1, §2, §3, §4, §5, §6, §7, §8, §9, §10, §11, §12, §13, §14, §15

Experiment [7] concerns the target T5, EGFR exon 20 SVD Ins D770_N771 (Ba/F3 cells) (Homo sapiens, UniProt P00533, INS770SVD).
T5 construct: expressed in transfected cells; host or cells: Ba/F3 (murine pro-B cells), retroviral transduction, puromycin selection, IL3-independent pool
Kind of experiment: Inhibitor activity on EGFR-dependent cell growth (CellTiter-Glo, 72 h), Ba/F3 EGFR exon 20 SVD Ins. The settings on record: read-out: BaF3 SVD IC50. The method, boiled down:
(§17)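 IC50s derive from a sigmoidal dose–response fit of CellTiter-Glo signal. The signal was normalised between […]-treated cells and cell-free medium. Ba/F3 mutant-EGFR cells, seeded at 400–800/well depending on the line, had 72 h of exposure to a 10-point, 3-fold compound series.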

Experiment [8] concerns the target T6, EGFR exon 20 ASV Ins V769_D770 (Ba/F3 cells) (Homo sapiens, UniProt P00533, INS769ASV).
T6 construct: expressed in transfected cells; host or cells: Ba/F3 (murine pro-B cells), retroviral transduction, puromycin selection, IL3-independent pool
In words: Inhibitor activity on EGFR-dependent cell growth (CellTiter-Glo, 72 h), Ba/F3 EGFR exon 20 ASV Ins. The note with it: read-out: BaF3 ASV IC50. The method, boiled down:
as §17

The target of experiment [9] is T3, EGFR L858R/C797S (Ba/F3 cells). Kind of experiment: Inhibitor activity on EGFR phosphorylation (pEGFR AlphaLISA, 2 h), Ba/F3 EGFR L858R/C797S.
Source text: as §1, §2, §3, §4, §5, §6, §7, §8, §9, §10, §11, §12, §13, §14, §15

The target in experiment [10] is T7, EGFR exon 20 NPG Ins D770_N771 (Ba/F3 cells) (Homo sapiens, UniProt P00533, INS770NPG).
T7 construct: expressed in transfected cells; host or cells: Ba/F3 (murine pro-B cells), retroviral transduction, puromycin selection, IL3-independent pool
Kind of experiment: Inhibitor activity on EGFR-dependent cell growth (CellTiter-Glo, 72 h), Ba/F3 EGFR exon 20 NPG Ins. The settings on record: read-out: BaF3 NPG IC50. In short, it runs like this: as §17

The target in experiment [11] is T8, EGFR exon 20 FQEA Ins A763_V764 (Ba/F3 cells) (Homo sapiens, UniProt P00533, INS763FQEA).
T8 construct: expressed in transfected cells; host or cells: Ba/F3 (murine pro-B cells), retroviral transduction, puromycin selection, IL3-independent pool
In words: Inhibitor activity on EGFR-dependent cell growth (CellTiter-Glo, 72 h), Ba/F3 EGFR exon 20 FQEA Ins. The note with it: read-out: BaF3 FQEA IC50. The method, boiled down: as §16

T5 sequence (P00533 with tags, fused parts or gaps INS770SVD): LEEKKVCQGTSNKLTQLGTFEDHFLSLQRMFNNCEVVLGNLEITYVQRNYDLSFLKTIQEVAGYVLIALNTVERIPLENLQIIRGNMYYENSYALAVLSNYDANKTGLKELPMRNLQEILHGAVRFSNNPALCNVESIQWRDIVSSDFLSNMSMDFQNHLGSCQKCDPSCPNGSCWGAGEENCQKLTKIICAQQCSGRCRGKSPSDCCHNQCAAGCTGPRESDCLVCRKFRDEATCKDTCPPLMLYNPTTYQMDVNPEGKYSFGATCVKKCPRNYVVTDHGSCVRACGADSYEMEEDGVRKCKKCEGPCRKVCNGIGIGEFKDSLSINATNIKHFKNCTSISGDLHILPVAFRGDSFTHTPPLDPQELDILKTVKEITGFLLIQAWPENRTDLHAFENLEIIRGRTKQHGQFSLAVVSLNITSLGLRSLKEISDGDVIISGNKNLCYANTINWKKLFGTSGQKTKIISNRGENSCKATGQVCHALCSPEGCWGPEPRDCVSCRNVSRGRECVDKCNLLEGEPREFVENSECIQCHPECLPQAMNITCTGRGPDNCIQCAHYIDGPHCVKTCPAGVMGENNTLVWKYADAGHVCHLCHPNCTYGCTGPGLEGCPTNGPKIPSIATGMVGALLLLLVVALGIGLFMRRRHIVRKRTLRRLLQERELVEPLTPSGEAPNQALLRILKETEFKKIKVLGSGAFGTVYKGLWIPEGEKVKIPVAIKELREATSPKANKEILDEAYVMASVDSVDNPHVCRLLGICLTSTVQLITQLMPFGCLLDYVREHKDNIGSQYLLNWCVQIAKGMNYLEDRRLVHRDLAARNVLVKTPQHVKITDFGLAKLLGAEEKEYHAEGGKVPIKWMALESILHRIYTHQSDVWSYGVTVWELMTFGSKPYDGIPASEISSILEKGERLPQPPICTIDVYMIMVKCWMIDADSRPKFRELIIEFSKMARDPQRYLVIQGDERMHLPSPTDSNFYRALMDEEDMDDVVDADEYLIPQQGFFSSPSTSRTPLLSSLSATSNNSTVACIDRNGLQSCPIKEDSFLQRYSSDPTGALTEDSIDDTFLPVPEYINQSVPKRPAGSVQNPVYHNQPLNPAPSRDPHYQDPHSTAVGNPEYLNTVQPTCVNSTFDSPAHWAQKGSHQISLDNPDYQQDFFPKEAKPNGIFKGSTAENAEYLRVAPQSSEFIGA
T4 sequence (P00533 25-1210 L858R): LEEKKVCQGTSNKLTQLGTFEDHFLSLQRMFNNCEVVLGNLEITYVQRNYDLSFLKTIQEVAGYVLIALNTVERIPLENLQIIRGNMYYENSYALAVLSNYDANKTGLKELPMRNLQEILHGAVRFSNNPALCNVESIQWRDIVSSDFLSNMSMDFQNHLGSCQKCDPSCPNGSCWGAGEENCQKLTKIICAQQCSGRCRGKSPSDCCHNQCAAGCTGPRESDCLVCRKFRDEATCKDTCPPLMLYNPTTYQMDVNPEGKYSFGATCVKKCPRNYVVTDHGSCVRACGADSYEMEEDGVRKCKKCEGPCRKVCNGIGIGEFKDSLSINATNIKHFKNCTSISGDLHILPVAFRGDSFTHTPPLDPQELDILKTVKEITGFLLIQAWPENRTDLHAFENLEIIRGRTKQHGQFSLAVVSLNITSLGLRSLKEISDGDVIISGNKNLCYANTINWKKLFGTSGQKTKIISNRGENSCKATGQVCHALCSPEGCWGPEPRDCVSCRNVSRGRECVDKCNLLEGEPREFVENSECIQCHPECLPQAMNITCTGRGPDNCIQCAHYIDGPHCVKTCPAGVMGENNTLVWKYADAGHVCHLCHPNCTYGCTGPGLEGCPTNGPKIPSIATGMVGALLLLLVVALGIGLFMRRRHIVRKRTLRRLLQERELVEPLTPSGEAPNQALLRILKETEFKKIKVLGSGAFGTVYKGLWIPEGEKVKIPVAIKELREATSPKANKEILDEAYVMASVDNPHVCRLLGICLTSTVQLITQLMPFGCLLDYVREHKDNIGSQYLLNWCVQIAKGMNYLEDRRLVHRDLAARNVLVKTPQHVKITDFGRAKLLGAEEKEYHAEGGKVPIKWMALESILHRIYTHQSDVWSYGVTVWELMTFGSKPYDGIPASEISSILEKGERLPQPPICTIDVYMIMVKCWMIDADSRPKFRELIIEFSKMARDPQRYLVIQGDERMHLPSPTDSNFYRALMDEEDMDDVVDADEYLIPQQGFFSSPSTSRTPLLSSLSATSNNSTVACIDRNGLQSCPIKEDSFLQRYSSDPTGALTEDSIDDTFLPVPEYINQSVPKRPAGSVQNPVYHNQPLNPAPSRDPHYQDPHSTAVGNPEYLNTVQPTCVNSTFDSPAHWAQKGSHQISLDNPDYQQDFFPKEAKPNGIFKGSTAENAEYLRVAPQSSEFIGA
T2 sequence (P00533 with tags, fused parts or gaps DEL746-750): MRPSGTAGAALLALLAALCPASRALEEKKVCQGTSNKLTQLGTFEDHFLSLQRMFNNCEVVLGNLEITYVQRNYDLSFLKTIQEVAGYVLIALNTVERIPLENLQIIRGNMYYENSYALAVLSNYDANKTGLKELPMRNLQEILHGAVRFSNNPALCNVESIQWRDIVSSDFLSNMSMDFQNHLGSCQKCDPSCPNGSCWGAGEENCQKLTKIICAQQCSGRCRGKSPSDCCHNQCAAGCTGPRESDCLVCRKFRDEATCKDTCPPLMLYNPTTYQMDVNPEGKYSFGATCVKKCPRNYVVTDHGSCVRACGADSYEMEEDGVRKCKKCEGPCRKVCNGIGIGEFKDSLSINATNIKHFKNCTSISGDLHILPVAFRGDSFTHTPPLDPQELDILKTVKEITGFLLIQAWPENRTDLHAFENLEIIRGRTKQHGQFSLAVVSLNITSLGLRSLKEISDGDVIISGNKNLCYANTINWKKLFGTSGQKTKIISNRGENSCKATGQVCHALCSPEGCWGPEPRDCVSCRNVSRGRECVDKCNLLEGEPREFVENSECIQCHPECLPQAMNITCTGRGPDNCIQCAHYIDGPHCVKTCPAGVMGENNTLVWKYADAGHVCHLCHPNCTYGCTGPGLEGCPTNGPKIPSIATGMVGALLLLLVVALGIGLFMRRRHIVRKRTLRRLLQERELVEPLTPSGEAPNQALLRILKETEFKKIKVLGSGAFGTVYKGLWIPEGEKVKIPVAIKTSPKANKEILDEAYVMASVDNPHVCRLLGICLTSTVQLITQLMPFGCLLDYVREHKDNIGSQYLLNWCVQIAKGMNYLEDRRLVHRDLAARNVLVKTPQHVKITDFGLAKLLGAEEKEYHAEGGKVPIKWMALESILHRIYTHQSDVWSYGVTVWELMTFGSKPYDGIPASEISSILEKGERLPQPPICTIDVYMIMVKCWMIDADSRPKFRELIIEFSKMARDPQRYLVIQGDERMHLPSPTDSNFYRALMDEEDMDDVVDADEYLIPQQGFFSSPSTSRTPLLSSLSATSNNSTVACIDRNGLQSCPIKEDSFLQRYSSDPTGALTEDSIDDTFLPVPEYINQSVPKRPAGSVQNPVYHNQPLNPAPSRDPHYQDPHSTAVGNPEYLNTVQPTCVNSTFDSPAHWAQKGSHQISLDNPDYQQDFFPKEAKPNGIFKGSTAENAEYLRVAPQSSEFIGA
T3 sequence (P00533 25-1210 C797S/L858R): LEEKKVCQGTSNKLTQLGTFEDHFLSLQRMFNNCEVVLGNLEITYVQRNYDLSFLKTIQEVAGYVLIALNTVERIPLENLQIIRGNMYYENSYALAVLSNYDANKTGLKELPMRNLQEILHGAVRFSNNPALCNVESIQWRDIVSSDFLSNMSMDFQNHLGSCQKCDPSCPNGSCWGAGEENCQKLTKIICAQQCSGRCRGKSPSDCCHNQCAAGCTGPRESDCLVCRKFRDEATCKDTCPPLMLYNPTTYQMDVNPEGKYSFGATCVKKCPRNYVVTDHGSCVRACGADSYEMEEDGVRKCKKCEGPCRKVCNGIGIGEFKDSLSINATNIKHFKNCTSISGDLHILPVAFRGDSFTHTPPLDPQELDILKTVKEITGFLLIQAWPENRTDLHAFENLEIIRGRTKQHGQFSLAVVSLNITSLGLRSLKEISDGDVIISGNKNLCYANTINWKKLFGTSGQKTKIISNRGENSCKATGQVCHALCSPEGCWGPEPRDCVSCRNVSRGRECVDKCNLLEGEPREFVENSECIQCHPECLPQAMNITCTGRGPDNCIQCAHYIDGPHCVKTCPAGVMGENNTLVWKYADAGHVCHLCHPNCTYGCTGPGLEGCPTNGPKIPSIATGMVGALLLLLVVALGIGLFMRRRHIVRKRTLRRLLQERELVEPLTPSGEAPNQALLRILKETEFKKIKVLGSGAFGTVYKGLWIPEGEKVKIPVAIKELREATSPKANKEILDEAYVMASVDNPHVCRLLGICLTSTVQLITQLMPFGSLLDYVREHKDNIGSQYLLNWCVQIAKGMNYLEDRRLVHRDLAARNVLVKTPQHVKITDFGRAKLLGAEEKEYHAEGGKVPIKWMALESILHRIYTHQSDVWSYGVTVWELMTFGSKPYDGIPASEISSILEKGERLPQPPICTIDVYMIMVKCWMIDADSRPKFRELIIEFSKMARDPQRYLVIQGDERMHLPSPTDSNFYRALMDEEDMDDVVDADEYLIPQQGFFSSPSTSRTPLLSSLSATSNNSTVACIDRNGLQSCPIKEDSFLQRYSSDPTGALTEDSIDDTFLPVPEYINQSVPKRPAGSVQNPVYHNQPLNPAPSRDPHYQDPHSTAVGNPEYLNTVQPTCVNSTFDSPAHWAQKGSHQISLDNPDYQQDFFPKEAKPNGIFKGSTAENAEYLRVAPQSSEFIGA

Consider `COc1c(F)cccc1Nc1c(-c2ccncn2)[nH]c2c1C(=O)NCC2C[C@H]1COCCO1` (single isomer, unassigned) [Compound 530, (7R*)-7-[(2S)-1,4-dioxan-2-ylmethyl]-3-[(3-fluoro-2-methoxyphenyl)amino]-2-(pyrimidin-4-yl)-1H,5H,6H,7H-pyrrolo[3,2-c]pyridin-4-one], for which the IC50 is 100 to 1000 nM in [1]; < 100 nM in experiment [2]; < 100 nM in [3]; < 100 nM in experiment [4]; < 100 nM in experiment [5]; < 100 nM in [6]. In addition, the IC50 in [7], in experiment [8], in [9] and in experiment [10] was < 100 nM each time.
Take `COc1c(F)cccc1Nc1c(-c2ccncn2)[nH]c2c1C(=O)NCC2C[C@H]1COCCO1` (single isomer, unassigned) [Compound 572, (7R*)-7-[(2S)-1,4-dioxan-2-ylmethyl]-3-[(3-fluoro-2-methoxyphenyl)amino]-2-(pyrimidin-4-yl)-1H,5H,6H,7H-pyrrolo[3,2-c]pyridin-4-one]: the IC50 is > 1000 nM in experiment [1]; < 100 nM in experiment [2]; < 100 nM in experiment [3]; < 100 nM in experiment [4]; < 100 nM in [5]; < 100 nM in experiment [6]. For the same compound, the IC50 in experiment [7] is < 100 nM; in experiment [8], 100 to 1000 nM; in [9] it was < 100 nM; in experiment [10] it was 100 to 1000 nM.
Turning to `COc1c(Cl)cccc1Nc1c(-c2ccncc2F)[nH]c2c1C(=O)NC[C@H]2CC1COCCO1` (stereo in doubt) [Compound 480, (7R)-3-[(3-chloro-2-methoxyphenyl)amino]-7-[(2R)-1,4-dioxan-2-ylmethyl]-2-(3-fluoropyridin-4-yl)-1H,5H,6H,7H-pyrrolo[3,2-c]pyridin-4-one], the IC50 in experiment [1] was 100 to 1000 nM; in experiment [11] it was < 100 nM; in experiment [2] it was < 100 nM; in experiment [3], < 100 nM; in experiment [4] it was < 100 nM; in [5] it was < 100 nM. The IC50 in experiment [6], in [9] and in experiment [10] was < 100 nM throughout.
Take `COc1c(F)cccc1Nc1c(-c2ccncc2F)[nH]c2c1C(=O)NC[C@H]2CC1COCCO1` (stereo in doubt) [Compound 575, (7R)-7-[(2R)-1,4-dioxan-2-ylmethyl]-3-[(3-fluoro-2-methoxyphenyl)amino]-2-(3-fluoropyridin-4-yl)-1H,5H,6H,7H-pyrrolo[3,2-c]pyridin-4-one]: the IC50 in experiment [1] is 100 to 1000 nM; in [2], < 100 nM; in [3], < 100 nM; in experiment [4], < 100 nM; in experiment [5], < 100 nM; in experiment [6], < 100 nM. In addition, the IC50 in experiment [7], in experiment [8], in experiment [9] and in experiment [10] was < 100 nM throughout.
As to `COc1c(Cl)cccc1Nc1c(-c2ccncc2F)[nH]c2c1C(=O)NCC21CN(CC(F)F)C1` [Compound 519, 3′-[(3-chloro-2-methoxyphenyl)amino]-1-(2,2-difluoroethyl)-2′-(3-fluoropyridin-4-yl)-5′,6′-dihydro-1′H-spiro[azetidine-3,7′-pyrrolo[3,2-c]pyridin]-4′-one], the IC50 is > 1000 nM in [1]; < 100 nM in experiment [2]; < 100 nM in [3]; < 100 nM in experiment [4]; < 100 nM in [5]; < 100 nM in experiment [6]. Further, the IC50 in experiment [7] is 100 to 1000 nM; in experiment [8], 100 to 1000 nM; in experiment [9], < 100 nM; in [10] it was 100 to 1000 nM.
Regarding `COc1c(Cl)cccc1Nc1c(-c2ccnc3ccc(OC4(C)COC4)nc23)[nH]c2c1C(=O)NCC2` [Compound 787, 3-[(3-chloro-2-methoxyphenyl)amino]-2-[6-[(3-methyloxetan-3-yl)oxy]-1,5-naphthyridin-4-yl]-1H,5H,6H,7H-pyrrolo[3,2-c] pyridin-4-one], the IC50 in [1], in experiment [11], in experiment [2], in experiment [3], in experiment [4] and in [5] was < 100 nM throughout. The IC50 in [6], in [7], in experiment [8], in [9] and in [10] was < 100 nM in each case.
